From patent US20100160454A1, “ANTIMICROBIAL AGENTS, COMPOSITIONS AND PRODUCTS CONTAINING THE SAME, AND METHODS OF USING THE COMPOSITIONS AND PRODUCTS” (Eastman Chemical Company, priority 2008, published 2010)

Experiments:
Test in all cases: Microbiological challenge testing in BPW broth, graded subculture counts
Type in all cases: cell-based
Aeromonas sp. Wild type = tested on: Aeromonas sp. Wild type
How it was run: (§1)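 TSB + 1% dextrose cultures, 35 ± 2 °C, ≥96 h. Inoculum calibrated by NTU vs plate counts; challenge at 10^5–10^6 CFU/mL final in BPW/1% dextrose with test material. Triplicates (butoxyethanol in duplicate). Spread plates on PCA, ≥48 h, CFU/mL = count × dilution.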

[1] = tested on: Staphylococcus epidermidis ATCC 12228
How it was run: as §1

[2] = tested on: Streptococcus mutans ATCC 35668
How it was run: as §1

[3] = tested on: Staphylococcus aureus ATCC 25923; conditions: S. aureus
How it was run: as §1

[4] = tested on: Burkholderia cepacia Wild type; conditions: B. cepacia
How it was run: as §1

[5] = tested on: Bacillus subtilis Wild type
How it was run: as §1

SMILES: OCC1CCC(CO)CC1 (stereo not drawn) [1,4-CHDM, 1,4-cyclohexanedimethanol]
- Aeromonas sp growth grade, 3 day (Aeromonas sp. Wild type; 0.5% weight/volume): 5 (More than 10,000 colonies estimated (thus more than 100,000 CFU/mL))
- Aeromonas sp growth grade, 14 day (Aeromonas sp. Wild type; 0.5% weight/volume): 4 (1000 to 10,000 colonies countable (thus 10,000 CFU/mL to 100,000 CFU/mL))
- Aeromonas sp growth grade, 30 day (Aeromonas sp. Wild type; 0.5% weight/volume): 4 (1000 to 10,000 colonies countable (thus 10,000 CFU/mL to 100,000 CFU/mL))
- Aeromonas sp growth grade, 3 day (Aeromonas sp. Wild type; 1.25% weight/volume): 4 (1000 to 10,000 colonies countable (thus 10,000 CFU/mL to 100,000 CFU/mL))
- Aeromonas sp growth grade, 14 day (Aeromonas sp. Wild type; 1.25% weight/volume): 3 (100 to 1000 colonies (thus 1000 to 10,000 CFU/mL))
- Aeromonas sp growth grade, 30 day (Aeromonas sp. Wild type; 1.25% weight/volume): 2 (52 to 100 colonies counted (thus 520 to 1000 CFU/mL))
- Aeromonas sp growth grade, 3 day (Aeromonas sp. Wild type; 2.5% weight/volume): 3 (100 to 1000 colonies (thus 1000 to 10,000 CFU/mL))
- Aeromonas sp growth grade, 14 day (Aeromonas sp. Wild type; 2.5% weight/volume): 1 (0 to 51 colonies counted (thus 10 to 510 CFU/mL based on 0.1-mL sample))
- Aeromonas sp growth grade, 30 day (Aeromonas sp. Wild type; 2.5% weight/volume): 0
- Aeromonas sp growth grade, 3 day (Aeromonas sp. Wild type; 5.0% weight/volume): 0
- Aeromonas sp growth grade, 14 day (Aeromonas sp. Wild type; 5.0% weight/volume): 0
- Aeromonas sp growth grade, 30 day (Aeromonas sp. Wild type; 5.0% weight/volume): 0
- S. epidermidis growth grade, 3 day ([1]; 0.5% weight/volume): 4 (1000 to 10,000 colonies countable (thus 10,000 CFU/mL to 100,000 CFU/mL))
- S. epidermidis growth grade, 13 day ([1]; 0.5% weight/volume): 4 (1000 to 10,000 colonies countable (thus 10,000 CFU/mL to 100,000 CFU/mL))
- S. epidermidis growth grade, 30 day ([1]; 0.5% weight/volume): 4 (1000 to 10,000 colonies countable (thus 10,000 CFU/mL to 100,000 CFU/mL))
- S. epidermidis growth grade, 3 day ([1]; 1.25% weight/volume): 2 (52 to 100 colonies counted (thus 520 to 1000 CFU/mL))
- S. epidermidis growth grade, 13 day ([1]; 1.25% weight/volume): 0.7
- S. epidermidis growth grade, 30 day ([1]; 1.25% weight/volume): 2 (52 to 100 colonies counted (thus 520 to 1000 CFU/mL))
- S. epidermidis growth grade, 3 day ([1]; 2.5% weight/volume): 0.7
- S. epidermidis growth grade, 13 day ([1]; 2.5% weight/volume): 0
- S. epidermidis growth grade, 30 day ([1]; 2.5% weight/volume): 0
- S. epidermidis growth grade, 3 day ([1]; 5.0% weight/volume): 0
- S. epidermidis growth grade, 13 day ([1]; 5.0% weight/volume): 0
- S. epidermidis growth grade, 30 day ([1]; 5.0% weight/volume): 0
- S. mutans growth grade, 3 day ([2]; 0.5% weight/volume): 4 (1000 to 10,000 colonies countable (thus 10,000 CFU/mL to 100,000 CFU/mL))
- S. mutans growth grade, 13 day ([2]; 0.5% weight/volume): 4 (1000 to 10,000 colonies countable (thus 10,000 CFU/mL to 100,000 CFU/mL))
- S. mutans growth grade, 30 day ([2]; 0.5% weight/volume): 4 (1000 to 10,000 colonies countable (thus 10,000 CFU/mL to 100,000 CFU/mL))
- S. mutans growth grade, 3 day ([2]; 1.25% weight/volume): 4 (1000 to 10,000 colonies countable (thus 10,000 CFU/mL to 100,000 CFU/mL))
- S. mutans growth grade, 13 day ([2]; 1.25% weight/volume): 2 (52 to 100 colonies counted (thus 520 to 1000 CFU/mL))
- S. mutans growth grade, 30 day ([2]; 1.25% weight/volume): 2 (52 to 100 colonies counted (thus 520 to 1000 CFU/mL))
- S. mutans growth grade, 3 day ([2]; 2.5% weight/volume): 2 (52 to 100 colonies counted (thus 520 to 1000 CFU/mL))
- S. mutans growth grade, 13 day ([2]; 2.5% weight/volume): 0
- S. mutans growth grade, 30 day ([2]; 2.5% weight/volume): 0
- S. mutans growth grade, 3 day ([2]; 5.0% weight/volume): 0
- S. mutans growth grade, 13 day ([2]; 5.0% weight/volume): 0
- S. mutans growth grade, 30 day ([2]; 5.0% weight/volume): 0
- Grade ([3]; 0.5% (wt/vol), 3 day): 4 (1000 to 10,000 colonies countable (thus 10,000 CFU/mL to 100,000 CFU/mL))
- Grade ([3]; 0.5% (wt/vol), 14 day): 4 (1000 to 10,000 colonies countable (thus 10,000 CFU/mL to 100,000 CFU/mL))
- Grade ([3]; 0.5% (wt/vol), 30 day): 4 (1000 to 10,000 colonies countable (thus 10,000 CFU/mL to 100,000 CFU/mL))
- Grade ([3]; 1.25% (wt/vol), 3 day): 3 (100 to 1000 colonies (thus 1000 to 10,000 CFU/mL))
- Grade ([3]; 1.25% (wt/vol), 14 day): 2.7
- Grade ([3]; 1.25% (wt/vol), 30 day): 4 (1000 to 10,000 colonies countable (thus 10,000 CFU/mL to 100,000 CFU/mL))
- Grade ([3]; 2.5% (wt/vol), 3 day): 1.7
- Grade ([3]; 2.5% (wt/vol), 14 day): 1 (0 to 51 colonies counted (thus 10 to 510 CFU/mL based on 0.1-mL sample))
- Grade ([3]; 2.5% (wt/vol), 30 day): 0
- Grade ([3]; 5.0% (wt/vol), 3 day): 0
- Grade ([3]; 5.0% (wt/vol), 14 day): 0
- Grade ([3]; 5.0% (wt/vol), 30 day): 0
- Grade ([4]; 0.5% (wt/vol), 3 day): 4 (1000 to 10,000 colonies countable (thus 10,000 CFU/mL to 100,000 CFU/mL))
- Grade ([4]; 0.5% (wt/vol), 14 day): 4 (1000 to 10,000 colonies countable (thus 10,000 CFU/mL to 100,000 CFU/mL))
- Grade ([4]; 0.5% (wt/vol), 30 day): 4 (1000 to 10,000 colonies countable (thus 10,000 CFU/mL to 100,000 CFU/mL))
- Grade ([4]; 1.25% (wt/vol), 3 day): 4 (1000 to 10,000 colonies countable (thus 10,000 CFU/mL to 100,000 CFU/mL))
- Grade ([4]; 1.25% (wt/vol), 14 day): 2 (52 to 100 colonies counted (thus 520 to 1000 CFU/mL))
- Grade ([4]; 1.25% (wt/vol), 30 day): 4 (1000 to 10,000 colonies countable (thus 10,000 CFU/mL to 100,000 CFU/mL))
- Grade ([4]; 2.5% (wt/vol), 3 day): 0
- Grade ([4]; 2.5% (wt/vol), 14 day): 0
- Grade ([4]; 2.5% (wt/vol), 30 day): 0
- Grade ([4]; 5.0% (wt/vol), 3 day): 0
- Grade ([4]; 5.0% (wt/vol), 14 day): 0
- Grade ([4]; 5.0% (wt/vol), 30 day): 0
- B. subtillis growth grade, 3 day ([5]; 0.5% weight/volume): 4 (1000 to 10,000 colonies countable (thus 10,000 CFU/mL to 100,000 CFU/mL))
- B. subtillis growth grade, 14 day ([5]; 0.5% weight/volume): 4 (1000 to 10,000 colonies countable (thus 10,000 CFU/mL to 100,000 CFU/mL))
- B. subtillis growth grade, 30 day ([5]; 0.5% weight/volume): 4 (1000 to 10,000 colonies countable (thus 10,000 CFU/mL to 100,000 CFU/mL))
- B. subtillis growth grade, 3 day ([5]; 1.25% weight/volume): 4 (1000 to 10,000 colonies countable (thus 10,000 CFU/mL to 100,000 CFU/mL))
- B. subtillis growth grade, 14 day ([5]; 1.25% weight/volume): 4 (1000 to 10,000 colonies countable (thus 10,000 CFU/mL to 100,000 CFU/mL))
- B. subtillis growth grade, 30 day ([5]; 1.25% weight/volume): 4 (1000 to 10,000 colonies countable (thus 10,000 CFU/mL to 100,000 CFU/mL))
- B. subtillis growth grade, 3 day ([5]; 2.5% weight/volume): 3 (100 to 1000 colonies (thus 1000 to 10,000 CFU/mL))
- B. subtillis growth grade, 14 day ([5]; 2.5% weight/volume): 2 (52 to 100 colonies counted (thus 520 to 1000 CFU/mL))
- B. subtillis growth grade, 30 day ([5]; 2.5% weight/volume): 1 (0 to 51 colonies counted (thus 10 to 510 CFU/mL based on 0.1-mL sample))
- B. subtillis growth grade, 3 day ([5]; 5.0% weight/volume): 1 (0 to 51 colonies counted (thus 10 to 510 CFU/mL based on 0.1-mL sample))
- B. subtillis growth grade, 14 day ([5]; 5.0% weight/volume): 0
- B. subtillis growth grade, 30 day ([5]; 5.0% weight/volume): 0
